{"source": "ChEMBL document CHEMBL5528023", "about": "“Discovery of a CB2 and 5-HT1A receptor dual agonist for the treatment of depression and anxiety” (Eur J Med Chem, 2024)", "key": {"[1]": {"system": "Mus musculus", "experiment": "Antidepressant activity in C57BL/6J mouse assessed as reduction in immobility time at 3 to 10 mg/kg, ip administered for 12 days and measured after 15 mins by forced swim test", "format": "functional, organism-based", "conditions": "dose 3-10 mg/kg, time 17295.0 min"}, "[2]": {"system": "Mus musculus", "experiment": "Induction of spontaneous locomotor activity in C57BL/6 mouse assessed as distance traveled at 1 to 10 mg/kg, ip administered once per day for 15 days and measured after 1 hr", "format": "functional, organism-based", "conditions": "dose 1-10 mg/kg, time 361.0 hrs"}, "[3]": {"system": "Mus musculus", "experiment": "Antidepressant activity in C57BL/6J mouse assessed as reduction in immobility time at 3 to 10 mg/kg, ip administered for 12 days by forced swim test", "format": "functional, organism-based", "conditions": "dose 3-10 mg/kg, time 12.0 day"}, "[4]": {"experiment": "Half life in ICR mouse at 25 mg/kg, po measured upto 8 hrs by LC-MS/MS analysis", "format": "ADME, organism-based", "conditions": "in vivo"}, "[5]": {"system": "Mus musculus", "experiment": "Induction of spontaneous locomotor activity in C57BL/6 mouse assessed as distance traveled at 10 mg/kg, ip measured at 1 hr", "format": "functional, organism-based"}, "[6]": {"experiment": "Cmax in ICR mouse at 25 mg/kg, po measured upto 8 hrs by LC-MS/MS analysis", "format": "ADME, organism-based", "conditions": "in vivo"}, "[7]": {"molecular_target": "T1, Cannabinoid receptor 1 (Homo sapiens, UniProt P21554)", "T1 sequence (P21554 whole entry)": "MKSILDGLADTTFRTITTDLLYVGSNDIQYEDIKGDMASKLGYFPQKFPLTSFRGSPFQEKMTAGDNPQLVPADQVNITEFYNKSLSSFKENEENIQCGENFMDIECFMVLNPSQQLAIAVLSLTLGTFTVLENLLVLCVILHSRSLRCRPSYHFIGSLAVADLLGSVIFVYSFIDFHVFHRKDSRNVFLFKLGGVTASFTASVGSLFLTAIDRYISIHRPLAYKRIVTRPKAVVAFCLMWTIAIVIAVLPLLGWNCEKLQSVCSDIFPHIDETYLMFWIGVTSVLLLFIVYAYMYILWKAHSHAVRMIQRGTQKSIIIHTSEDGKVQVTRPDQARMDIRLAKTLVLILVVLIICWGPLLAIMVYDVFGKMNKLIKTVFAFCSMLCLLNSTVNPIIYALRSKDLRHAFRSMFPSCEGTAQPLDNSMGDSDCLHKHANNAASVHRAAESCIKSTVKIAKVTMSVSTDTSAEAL", "experiment": "Antagonist activity at human CB1 receptor expressed in CHO cells assessed as inhibition of forskolin-stimulated cAMP formation preincubated with compound for 10 mins followed by forskolin induction and measured after 30 mins by HTRF analysis", "format": "functional, cell-based"}, "[8]": {"experiment": "AUClast in ICR mouse at 25 mg/kg, po measured upto 8 hrs by LC-MS/MS analysis", "format": "ADME, organism-based", "conditions": "in vivo"}, "[9]": {"molecular_target": "T2, Cannabinoid receptor 2 (Homo sapiens, UniProt P34972)", "T2 sequence (P34972 whole entry)": "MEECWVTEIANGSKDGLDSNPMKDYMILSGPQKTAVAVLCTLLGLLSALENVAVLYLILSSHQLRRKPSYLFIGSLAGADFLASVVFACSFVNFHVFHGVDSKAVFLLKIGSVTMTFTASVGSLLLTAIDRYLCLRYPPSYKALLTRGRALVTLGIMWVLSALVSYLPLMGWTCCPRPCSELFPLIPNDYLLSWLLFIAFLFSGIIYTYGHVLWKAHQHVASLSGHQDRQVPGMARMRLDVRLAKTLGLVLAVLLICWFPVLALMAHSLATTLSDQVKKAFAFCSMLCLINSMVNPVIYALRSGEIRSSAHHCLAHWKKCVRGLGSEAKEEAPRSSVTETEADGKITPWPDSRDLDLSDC", "experiment": "Agonist activity at human CB2 receptor expressed in CHO cells assessed as forskolin-stimulated cAMP formation preincubated with compound for 10 mins followed by forskolin induction and measured after 30 mins by HTRF analysis relative to control", "format": "functional, cell-based", "conditions": "time 40.0 min"}, "[10]": {"experiment": "Cmax in ICR mouse brain at 25 mg/kg, po measured upto 8 hrs by LC-MS/MS analysis", "format": "ADME, organism-based"}, "[11]": {"system": "Mus musculus", "experiment": "Antidepressant activity in C57BL/6J mouse at 1 mg/kg, ip administered for 14 days by tail suspension test", "format": "functional, organism-based", "conditions": "time 14.0 day"}, "[12]": {"molecular_target": "T3, 5-hydroxytryptamine receptor 1A (Homo sapiens) (UniProt P08908)", "T3 sequence (whole entry)": "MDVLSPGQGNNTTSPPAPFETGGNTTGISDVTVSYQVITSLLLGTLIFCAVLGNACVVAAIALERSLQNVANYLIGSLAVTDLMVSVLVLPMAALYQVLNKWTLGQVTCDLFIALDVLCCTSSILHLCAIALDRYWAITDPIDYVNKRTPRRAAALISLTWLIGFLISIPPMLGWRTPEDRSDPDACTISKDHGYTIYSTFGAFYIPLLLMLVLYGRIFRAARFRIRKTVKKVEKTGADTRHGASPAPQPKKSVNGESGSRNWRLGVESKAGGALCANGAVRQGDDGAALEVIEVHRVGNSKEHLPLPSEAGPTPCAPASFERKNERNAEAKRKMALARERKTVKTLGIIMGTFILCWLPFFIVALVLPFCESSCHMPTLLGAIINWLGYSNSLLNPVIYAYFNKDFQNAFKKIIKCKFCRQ", "experiment": "Agonist activity at human 5HT1A receptor expressed in HEK293 cells assessed as forskolin-stimulated cAMP formation preincubated with compound for 10 mins followed by forskolin induction and measured after 30 mins by HTRF analysis relative to control", "format": "functional, cell-based", "conditions": "filed as agonist, time 40.0 min"}, "[13]": {"system": "Mus musculus", "experiment": "Antidepressant activity in C57BL/6J mouse assessed as reduction in immobility time at 1 mg/kg, ip administered for 12 days and measured after 15 mins by forced swim test", "format": "functional, organism-based", "conditions": "time 17295.0 min"}, "[14]": {"system": "Mus musculus", "experiment": "Anxiolytic activity against stress-induced hyperthermia in ip dosed ICR mouse assessed as reduction in basal core rectal temperature measured for 60 mins", "format": "functional, organism-based", "conditions": "dose 3-10 mg/kg"}, "[15]": {"molecular_target": "T2, Cannabinoid receptor 2", "experiment": "Agonist activity at human CB2 receptor expressed in CHO cells assessed as forskolin-stimulated cAMP formation preincubated with compound for 10 mins followed by forskolin induction and measured after 30 mins by HTRF analysis", "format": "functional, cell-based"}, "[16]": {"system": "Mus musculus", "experiment": "Antidepressant activity in C57BL/6J mouse assessed as […] at 1 mg/kg, ip administered for 14 days by tail suspension test", "format": "functional, organism-based", "conditions": "time 14.0 day"}, "[17]": {"system": "Mus musculus", "experiment": "Induction of spontaneous locomotor activity in C57BL/6 mouse at 1 mg/kg, ip measured at 1 hr", "format": "functional, organism-based"}, "[18]": {"experiment": "Tmax in ICR mouse at 25 mg/kg, po measured upto 8 hrs by LC-MS/MS analysis", "format": "ADME, organism-based", "conditions": "in vivo"}, "[19]": {"molecular_target": "T4, 5-hydroxytryptamine receptor 1A (Homo sapiens, UniProt P08908)", "T4 sequence (P08908 whole entry)": "T3 sequence (whole entry)", "experiment": "Agonist activity at human 5HT1A receptor expressed in HEK293 cells assessed as forskolin-stimulated cAMP formation preincubated with compound for 10 mins followed by forskolin induction and measured after 30 mins by HTRF analysis", "format": "functional, cell-based"}, "[20]": {"system": "Mus musculus", "experiment": "Anxiolytic activity against stress-induced hyperthermia in ICR mouse assessed as reduction in basal core rectal temperature at 1 to 10 mg/kg, ip measured for 60 mins", "format": "functional, organism-based", "conditions": "dose 1-10 mg/kg"}, "[21]": {"system": "Mus musculus", "experiment": "Antidepressant activity in C57BL/6J mouse assessed as reduction in immobility time at 1 mg/kg, ip administered for 12 days by forced swim test", "format": "functional, organism-based", "conditions": "time 12.0 day"}, "[22]": {"experiment": "Toxicity in C57BL/6J mouse assessed as effect on body weight at 1 to 10 mg/kg, ip measured upto 10 days", "format": "organism-based", "conditions": "in vivo, 240 h, dose 1-10 mg/kg, time < 10 day"}, "[23]": {"system": "Mus musculus", "experiment": "Induction of spontaneous locomotor activity in C57BL/6 mouse at 3 mg/kg, ip measured at 15 mins", "format": "functional, organism-based"}, "[24]": {"molecular_target": "T1, Cannabinoid receptor 1", "experiment": "Antagonist activity at human CB1 receptor expressed in CHO cells assessed as inhibition of forskolin-stimulated cAMP formation by measuring maximum inhibition preincubated with compound for 10 mins followed by forskolin induction and measured after 30 mins by HTRF analysis relative to control", "format": "functional, cell-based", "conditions": "filed as antagonist, time 40.0 min"}, "[25]": {"system": "Mus musculus", "experiment": "Anxiolytic activity against stress-induced hyperthermia in ip dosed ICR mouse assessed as reduction in delta temperature measured for 60 mins", "format": "functional, organism-based", "conditions": "dose 1-10 mg/kg"}}, "note": "Active and inactive are the calls of the source. The calls are words filed in the database; no cut-off is given here.", "data": [{"smiles": "C=C(C)[C@@H]1CCC(C)=C[C@H]1c1c(O)cc(C2(CCCC)CC2)c(C(N)=O)c1O", "values": [{"measurement": "Activity", "setting": "[1]", "value": "Active"}, {"measurement": "Activity", "setting": "[2]", "value": "Active"}, {"measurement": "Activity", "setting": "[3]", "value": "Active"}, {"measurement": "half-life", "setting": "[4]", "value": 2.5, "unit": "h"}, {"measurement": "Activity", "setting": "[5]", "value": "inactive"}, {"measurement": "Cmax", "setting": "[6]", "value": 211, "unit": "ng/mL"}, {"measurement": "IC50", "setting": "[7]", "value": 3200, "unit": "nM"}, {"measurement": "AUC(0-t) at 8 h", "setting": "[8]", "value": 545, "unit": "ng·h/mL"}, {"measurement": "Emax", "setting": "[9]", "value": 34.9, "unit": "%"}, {"measurement": "Cmax", "setting": "[10]", "value": 217, "unit": "ng/g"}, {"measurement": "Activity", "setting": "[11]", "value": "Active"}, {"measurement": "Emax", "setting": "[12]", "value": 101, "unit": "%"}, {"measurement": "Activity", "setting": "[13]", "value": "Active"}, {"measurement": "Activity", "setting": "[14]", "value": "Dose-Dependent Effect"}, {"measurement": "EC50", "setting": "[15]", "value": 480, "unit": "nM"}, {"measurement": "Activity", "setting": "[16]", "value": "inactive"}, {"measurement": "Activity", "setting": "[17]", "value": "Active"}, {"measurement": "Tmax", "setting": "[18]", "value": 1.3, "unit": "h"}, {"measurement": "EC50", "setting": "[19]", "value": 2700, "unit": "nM"}, {"measurement": "Activity", "setting": "[20]", "value": "Active"}, {"measurement": "Activity", "setting": "[21]", "value": "Active"}, {"measurement": "Activity", "setting": "[22]", "value": "Non-Toxic"}, {"measurement": "Activity", "setting": "[23]", "value": "Active"}, {"measurement": "Imax", "setting": "[24]", "value": 93.8, "unit": "%"}, {"measurement": "Activity", "setting": "[25]", "value": "Dose-Dependent Effect"}]}]}
